Measured values: patent US6355633B1, “Aryl sulfonic acids and derivatives as FSH antagonists” (American Home Products Corporation, priority 1999, dated 2002)

Target: T1, FSH receptor (Homo sapiens, UniProt P23945)
T1 sequence (P23945 18-695): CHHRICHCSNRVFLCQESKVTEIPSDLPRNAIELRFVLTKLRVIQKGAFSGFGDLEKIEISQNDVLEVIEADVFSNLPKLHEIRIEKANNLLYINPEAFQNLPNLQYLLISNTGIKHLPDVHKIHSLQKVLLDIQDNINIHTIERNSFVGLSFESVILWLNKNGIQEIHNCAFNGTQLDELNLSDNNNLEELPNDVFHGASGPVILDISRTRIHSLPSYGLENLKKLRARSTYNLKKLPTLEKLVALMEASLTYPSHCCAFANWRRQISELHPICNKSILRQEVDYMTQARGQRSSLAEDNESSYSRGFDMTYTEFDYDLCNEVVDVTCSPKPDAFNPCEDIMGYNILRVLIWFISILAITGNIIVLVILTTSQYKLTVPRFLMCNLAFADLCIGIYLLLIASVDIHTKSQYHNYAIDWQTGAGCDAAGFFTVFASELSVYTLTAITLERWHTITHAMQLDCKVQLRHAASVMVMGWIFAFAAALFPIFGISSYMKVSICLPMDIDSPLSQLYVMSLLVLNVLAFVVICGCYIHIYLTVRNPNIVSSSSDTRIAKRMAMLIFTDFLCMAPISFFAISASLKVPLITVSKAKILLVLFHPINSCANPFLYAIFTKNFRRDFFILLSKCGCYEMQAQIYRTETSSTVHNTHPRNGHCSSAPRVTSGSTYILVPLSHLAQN
Test: FSH Receptor Radioligand Membrane Binding Standard Pharmacological Test Procedure
Design: expressed in transfected cells
Conditions: [125I]FSH binding to membranes of CHO cells stably transfected with the human FSH receptor
Protocol: FSH Receptor Radioligand Membrane Binding Standard Pharmacological Test Procedure
Membrane Source: Chinese hamster ovarian cells stably transfected with the human FSH receptor were cultured (Ultra CHO medium containing 1% fetal bovine serum and 200 μg/mL G418) in and harvested. Cells were collected by centrifugation and resulting cell pellets were frozen and stored at −70° C.
Membrane Receptor Preparation: Frozen cell pellets were weighed and resuspended in binding buffer to a final concentration of 30 mg wet weight/mL. Cell suspension for each pellet was homogenized using a Tempest homogenizer (setting=1; 5 strokes; VirTis, Gardiner, N.Y.). Cell homogenates were pooled and 35 mL aliquots were transferred to 50-mL polypropylene copolymer centrifuge tubes (Nalgene cat. #3110-0500). Tubes were spun at 12,000 rpm (SS34 rotor) for 12 min at 4° C. Resulting supernatant fractions were discarded and pellets were stored at −70° C. until use. On the day of the procedure, 35 mL binding buffer was added to each tube (35 mL membrane suspension was sufficient for three 96-well plates). The membrane pellet was dispersed by trituration using a pipet. The resulting suspension wass homogenized using a Tempest homogenizer (3 strokes at setting=1).
Receptor Binding Test procedure: Membrane homogenate (100 μl) was added to each well of a 96-well microtiter plate (Falcon # 3077). All reactions were tested in triplicate. Test compound solutions (50 μl) were added to the designated wells. Total bound counts were determined by adding 50 μl binding buffer containing 4% DMSO to the designated wells. […] Plates were pre-incubated for 15 min at room temperature on shaking platform (setting=3). After preincubation [^125I]FSH (50 μl) was added to each well and plates were incubated for 2 h at room temperature on shaking platform (setting=3). The reaction was terminated by transfer of the membrane preparation to glass fiber filters (Blue Mat #11740; 102×256 mm; Skatron Instruments, Sterling, Va.) that had been pretreated with 1% BSA in wash buffer for at least 30 min, but not longer than 1 h using a 96-well microtiter vacuum harvester (Skatron Instruments). The membrane preparation was washed with 5 cycles of ice-cold wash buffer (200 μl/well/cycle) followed by a pulse wash of 3 cycles (100 μl/well/cycle). The total wash volume per well was 1.3 mL. The filters were dried by a 10 sec aspiration. Disks corresponding to each well of the microtiter plate were punched out of the filter mat into 12×75 mm polypropylene tubes. The radioactivity present on each of the disks was measured using a gamma counter.
An FSH dose response curve (0.001, 0.01, 0.1, 1, 10, and 100 nM) was generated for each binding procedure to monitor procedure to procedrue variability.
FSH Receptor Radioligand Membrane Binding Procedure Buffers and Reagents
Binding buffer is prepared in 11 volumes containing Trizma-HCl, MgCl2, CaCl2 and sodium azide, the pH was adjusted to 7.2 with NaOH, and stored at 4° C. until use. BSA was weighed out on the day of the procedure and added to the amount of buffer required for the procedure (usually 150 mL). The protease inhibitors were prepared as 1 mg/mL stocks (aprotinin, leupeptin, and phosphoramidon were prepared in binding buffer without BSA and protease inhibitors; pepstatin and PMSF were prepared in methanol), stored in 1 mL aliquots at −70° C., and added to the binding buffer on the day of the procedure.
Wash buffer was prepared containing Trizma-HCl, MgCl2 and EDTA, the pH was adjusted to 7.2 with NaOH, and stored at 4° C.
Filter Soak Buffer (pH 7.2)
BSA was weighed out on the day of the procedure and added to 300 mL of wash buffer. The filter soak buffer was used for two procedures before being discarded.
A portion of the stock solution was diluted in binding buffer to a concentration of 200 pM.
FSH Solution for Determining Non-specific Binding: Purified human FSH was prepared as a 100 μM solution in binding buffer without protease inhibitors. […]

SMILES | IC50 [µM]
COCCNc1ccc(C(=O)Nc2ccc(/C=C/c3ccc(NC(=O)c4ccc(NCCOC)c(S(=O)(=O)N5CCOCC5)c4)cc3S(=O)(=O)O)c(S(=O)(=O)O)c2)cc1S(=O)(=O)N1CCOCC1 [Example 30l, 2,2′-[(E)-1,2-Ethenediyl]bis[5-[[4-[(2-methoxyethyl)amino]-3-(4-morpholinylsulfonyl)benzoyl]amino]benzenesulfonic Acid]] | 3.9
O=C(Nc1ccc(/C=C/c2ccc(NC(=O)c3ccc(OCc4ccco4)c(S(=O)(=O)N4CCOCC4)c3)cc2S(=O)(=O)O)c(S(=O)(=O)O)c1)c1ccc(OCc2ccco2)c(S(=O)(=O)N2CCOCC2)c1 [Example 30u, 2,2′-[(E)-1,2-Ethenediyl]bis[5-[[4-(2-furanylmethoxy)-3-(4-morpholinylsulfony)benzoyl]amino]benzenesulfonic Acid]] | 10
COC(=O)CS(=O)(=O)c1ccc(C(=O)Nc2ccc(C=Cc3ccc(NC(=O)c4ccc(S(=O)(=O)CC(=O)OC)cc4)cc3S(=O)(=O)O)c(S(=O)(=O)O)c2)cc1 [Example 32c, [4-(4-{2-[4-(4-Methoxycarbonylmethanesulfonyl-benzoylamino)-2-sulfo-phenyl]-vinyl}-3-sulfo-phenylcarbomoyl)-benzenesulfonyl]-acetic Acid, Methyl Ester] | 6.9
COC(=O)CS(=O)(=O)c1cccc(C(=O)Nc2ccc(C=Cc3ccc(NC(=O)c4cccc(S(=O)(=O)CC(=O)OC)c4)cc3S(=O)(=O)O)c(S(=O)(=O)O)c2)c1 [Example 32d, [3-(4-{2-[4-(3-Methoxycarbonylmethanesulfonyl-benzoylamino)-2-sulfo-phenyl]-vinyl}-3-sulfo-phenylcarbomoyl)-benzenesulfonyl]-acetic Acid, Methyl Ester] | 12.5
O=C(Nc1ccc(/C=C/c2ccc(NC(=O)c3ccc(N4CCOCC4)c(S(=O)(=O)N4CCOCC4)c3)cc2S(=O)(=O)O)c(S(=O)(=O)O)c1)c1ccc(N2CCOCC2)c(S(=O)(=O)N2CCOCC2)c1 [Example 32k, 2,2′-[(E)-1,2-Ethenediyl]bis[5-[[4-(4-morpholinyl)-3-(4-morholinylsulfonyl)benzoyl]amino]benzenesulfonic Acid]] | 7
CN(C)c1ccc(C(=O)Nc2ccc(/C=C/c3ccc(NC(=O)c4ccc(N(C)C)c(S(=O)(=O)N5CCOCC5)c4)cc3S(=O)(=O)O)c(S(=O)(=O)O)c2)cc1S(=O)(=O)N1CCOCC1 [Example 32n, 2,2′-[(E)-1,2-Ethenediyl]bis[5-[[4-(dimethylamino)-3-(4-morpholinylsulfonyl)benzoyl]amino]benzenesulfonic Acid]] | 4.8
COC(=O)CSc1ccc(C(=O)Nc2ccc(/C=C/c3ccc(NC(=O)c4ccc(SCC(=O)OC)c(S(=O)(=O)N5CCOCC5)c4)cc3S(=O)(=O)O)c(S(=O)(=O)O)c2)cc1S(=O)(=O)N1CCOCC1 [Example 32p, [4-[4-(2-{4-[4-Methoxycarbonylmethanesulfanyl-3-(morpholine-4-sulfonyl)-benzoylamino]-2-sulfo-phenyl}-(E)-vinyl)-3-sulfo-phenylcarbamoyl]-2-(morpholine-4-sulfonyl)-phenylsulfanyl]-acetic Acid, Methyl Ester] | 15
O=C(Nc1ccc(CCc2ccc(NC(=O)c3ccc(CC4CCCO4)c(S(=O)(=O)N4CCOCC4)c3)cc2S(=O)(=O)O)c(S(=O)(=O)O)c1)c1ccc(CC2CCCO2)c(S(=O)(=O)N2CCOCC2)c1 (stereo not shown) [Example 32q, 2,2′-(1,2-Ethanediyl)bis[5-[[4-(tetrahydro-2-furanmethyl)-3-(4-morpholinylsulfonyl)benzoyl]amino]benzenesulfonic Acid]] | 2.4
O=C(Nc1ccc(/C=C/c2ccc(NC(=O)c3cccc(CN4CCOCC4)c3)cc2S(=O)(=O)O)c(S(=O)(=O)O)c1)c1cccc(CN2CCOCC2)c1 [Example 33b, 2,2′-[(E)-1,2-Ethenediyl]bis[5-[[3-(4-morpholinylmethyl)benzoyl]amino]benzenesulfonic Acid]] | 4.5

More lines, in order of falling IC50, values ahead:

IC50 [µM] | SMILES
20 | COc1ccc(C(=O)Nc2ccc(-c3ccc(NC(=O)c4ccc(OC)c(S(=O)(=O)N5CCOCC5)c4)cc3S(=O)(=O)O)c(S(=O)(=O)O)c2)cc1S(=O)(=O)N1CCOCC1 [Example 33g, 4,4′-Bis[4-methoxy-3-(morpholine-4-sulfonyl)benzoylamino]biphenyl-2,2′-(bis)sulfonic Acid]
16 | O=C(O)CS(=O)(=O)c1ccc(C(=O)Nc2ccc(C=Cc3ccc(NC(=O)c4ccc(S(=O)(=O)CC(=O)O)cc4)cc3S(=O)(=O)O)c(S(=O)(=O)O)c2)cc1 [Example 36a, [4-(4-{2-[4-(4-Carboxymethanesulfonyl-benzoylamino)-2-sulfo-phenyl]-vinyl}-3-sulfo-phenylcarbamoyl)-benzenesulfonyl]-acetic Acid]
6.9 | O=C(Nc1ccc(/C=C/c2ccc(NC(=O)c3cccc(S(=O)(=O)N4CCOCC4)c3)cc2S(=O)(=O)O)c(S(=O)(=O)O)c1)c1cccc(S(=O)(=O)N2CCOCC2)c1 [Example 33a, 2,2′-[(E)-1,2-Ethenediyl]bis[5-[[3-(4-morpholinylsulfonyl)benzoyl]amino]benzenesulfonic Acid]]
5.3 | CS(=O)(=O)Cc1ccc(C(=O)Nc2ccc(/C=C/c3ccc(NC(=O)c4ccc(CS(C)(=O)=O)cc4)cc3S(=O)(=O)O)c(S(=O)(=O)O)c2)cc1 [Example 32g, 2,2′-[(E)-1,2-Ethenediyl]bis[5-[[4-[(methylsulfonyl)methyl]benzoyl]amino]benzenesulfonic Acid]]
4.9 | COCCN(CCOC)c1ccc(C(=O)Nc2ccc(/C=C/c3ccc(NC(=O)c4ccc(N(CCOC)CCOC)c(S(=O)(=O)N5CCOCC5)c4)cc3S(=O)(=O)O)c(S(=O)(=O)O)c2)cc1S(=O)(=O)N1CCOCC1 [Example 32m, 2,2′-[(E)-1,2-Ethenediyl]bis[5-[[4-[bis(2-methoxyethyl)amino]-3-(4-morpholinylsulfonyl)benzoyl]amino]benzenesulfonic Acid]]
4.1 | COCCSc1ccc(C(=O)Nc2ccc(/C=C/c3ccc(NC(=O)c4ccc(SCCOC)c(S(=O)(=O)N5CCOCC5)c4)cc3S(=O)(=O)O)c(S(=O)(=O)O)c2)cc1S(=O)(=O)N1CCOCC1 [Example 32l]
4.1 | CS(=O)(=O)c1ccc(C(=O)Nc2ccc(/C=C/c3ccc(NC(=O)c4ccc(S(C)(=O)=O)c(N)c4)cc3S(=O)(=O)O)c(S(=O)(=O)O)c2)cc1N [Example 35, 2,2′-[(E)-1,2-Ethenediyl]bis[5-[[3-amino-4-(methylsulfonyl)benzoyl]amino]benzenesulfonic Acid]]
